Reference: US11628169B2, “Therapeutic drug for motor complications in Parkinson's disease” (Sumitomo Pharma Co., Ltd., priority 2020, dated 2023)
“Also recorded” adds a separate entry of the source.

Assays:
PD-LID rat model [1] = experiment: Dyskinesia-like symptom (AIMs) score in PD-LID rat model; type: in vivo
PD-LID rat model [2] = experiment: ON score and ON time without dyskinesia in PD-LID rat model; type: in vivo; conditions: for total ON score (Locomotive behavior) in 3 hours: levodopa 5 min later
Protocol: To make a PD-LID rat model, a mixture of levodopa methyl ester hydrochloride (6 mg/kg; Sigma-Aldrich) dissolved in saline and benserazide hydrochloride (15 mg/kg; Sigma-Aldrich) (hereinafter, also referred to as “levodopa containing solution”) was intraperitoneally administered once daily to 6-OHDA-lesioned rats. The levodopa containing solution was repeatedly administered for 3 weeks or longer to observe and evaluate the behavior. The behavior was observed and evaluated in a transparent acrylic cage for 1 minute every 20 minutes after 20 minutes from the intraperitoneal administration of the levodopa containing solution, up until after 3 hours from administration. […] Individuals with a total AIMs score of less than 10 were excluded from the test as not manifesting a dyskinesia-like symptom. The behavior was observed and evaluated before the drug evaluation date. […] For an indicator of dyskinesia behavior, the sum of the Limb AIMs, Axial AIMs, and Orolingual AIMs at each evaluation point was used as the AIMs score. For the rotational behavior (ON score), Locomotive behavior at each evaluation point was used as an indicator. […] For ON time without dyskinesia, the period during which the AIMs score is 0 and Locomotive behavior is 1 or greater at each evaluation point was added. Duration of action of levodopa without a dyskinesia symptom (ON time without dyskinesia) refers to the aggregate time with no dyskinesia during the antiparkinsonian action effective time, i.e., “ON-time”, and defined as the time during which the dyskinesia symptom (AIMs) score is 0 and the rotational behavior (Locomotive behavior) score is 1 or greater at each evaluation point after levodopa administration. […] After 5 minutes, a levodopa containing solution was intraperitoneally administered, and the behavior was observed and evaluated. The results in the drawings are indicated in terms of mean value±standard error. […] For evaluation of a tape agent, the abdominal regions of the rats were shaved prior to the evaluation date. […] After 4 hours from application, a levodopa containing solution was intraperitoneally administered to observe and evaluation the behavior. The results in the drawings are indicated in terms of mean value±standard error. Individuals with 50% or more of the tape agent coming off during the test were excluded from analysis.

PD-LID rat model [3] = experiment: Dyskinesia-like symptom (AIMs) score in PD-LID rat model; type: in vivo; conditions: continuous subcutaneous infusion 60 mg/mL (mean 0.78 mg/kg/hour); day 0 of implanting the pump; vs solvent group
Protocol: To make a PD-LID rat model, a mixture of levodopa methyl ester hydrochloride (6 mg/kg; Sigma-Aldrich) dissolved in saline and benserazide hydrochloride (15 mg/kg; Sigma-Aldrich) (hereinafter, also referred to as “levodopa containing solution”) was intraperitoneally administered once daily to 6-OHDA-lesioned rats. The levodopa containing solution was repeatedly administered for 3 weeks or longer to observe and evaluate the behavior. The behavior was observed and evaluated in a transparent acrylic cage for 1 minute every 20 minutes after 20 minutes from the intraperitoneal administration of the levodopa containing solution, up until after 3 hours from administration. […] The sum of the scores for Limb AIMs, Axial AIMs, and Orolingual AIMs in 3 hours was used as the total dyskinesia-like symptom (AIMs) score. Individuals with a total AIMs score of less than 10 were excluded from the test as not manifesting a dyskinesia-like symptom. The behavior was observed and evaluated before the drug evaluation date. The rats were assigned to each dosing group by using the 3 hour total dyskinesia-like symptom (AIMs) score, Locomotive behavior score, and rat body weight as indicators, which were used for evaluation of drugs. […]
After 4 hours from application, a levodopa containing solution was intraperitoneally administered to observe and evaluate the behavior. Individuals with 50% or more of the tape agent coming off during the test were excluded from analysis. […]
As in Example 2, a levodopa containing solution was repeated administered to 6-0HDA-lesioned rats for 3 weeks or longer to observe and evaluate the behavior. The behavior was observed and evaluated before the drug evaluation date. The rats were assigned to each dosing group by using the 3 hour dyskinesia-like symptom (AIMs) score, Locomotive behavior score, and rat body weight as indicators, which were used for evaluation of drugs. However, individuals with a total AIMs score of less than 10 were excluded from the test as lacking manifestation of a dyskinesia-like symptom. Individuals with a body weight deviating 10% or more from the mean body weight were also excluded from the test to minimize variation in the dosage for each individual. […]
After 4 hours, a levodopa containing solution was administered to observe and evaluate the behavior. […]
The prepared solution was used after injection into an ALZET® Osmotic Pump MODEL 2ML2 (4.53 μL/hour; DURECT) for releasing a drug solution at a stable rate for 2 weeks. […]
The behavior was observed and evaluated using the same method as Example 2. […] After 5 minutes, a levodopa containing solution was intraperitoneally administered, and the behavior was observed and evaluated. The results in the drawings are indicated in terms of mean value […] standard error. The test results were statistically analyzed by comparison with the solvent administration group by Steel test using the total dyskinesia-like symptom (AIMs) score in 3 hours and total dyskinesia-like symptom score in 100 to 180 minutes as parameters. * indicates p<0.05, meaning that there is a significant difference.
The behavior was observed and evaluated using the same method in Example 2. […] The test results were statistically analyzed by comparison with the solvent administration group by Steel test by using the total dyskinesia-like symptom (AIMs) score in 3 hours and total dyskinesia-like symptom score in 100 to 180 minutes as parameters.

6-OHDA-lesioned rats = experiment: Prevention/suppression of dyskinesia-like symptoms during repeated levodopa administration; type: in vivo, rat; conditions: vs solvent group; for increase in total AIMs score associated with repeated administration of levodopa: days 3, 5, 9, 15
Protocol: The prepared solution was used after injection into an ALZET® Osmotic Pump MODEL 2ML2 (4.53 μL/hour; DURECT).
6-OHDA-lesioned rats were assigned to each administration group using the number of apomorphine hydrochloride hemihydrate induced rotations and body weight as indicators. […] The osmotic pump implanted subcutaneously was retrieved after the observation and evaluation of behavior on day 15. The behavior was also observed and evaluated on the following day (day 16 of repeated administration of levodopa).
The test results were statistically analyzed by comparison with the solvent administration group using Steel test with the total AIMs score on day 16 of repeated levodopa administration as the parameter. * indicates p<0.05 and ** indicates p<0.01, meaning that there is a significant difference compared to the solvent administration group.

[4] = oral 67 mg/kg as free form (100 mg/kg as citrate)

Substance: tandospirone citrate
- dyskinesia-like symptoms (total AIMs score in 3 hours) (PD-LID rat model [1]; continuous subcutaneous infusion 60 mg/mL (mean 0.78 mg/kg/hour), day 13 of implanting the pump, vs solvent group): significant improvement in dyskinesia-like symptoms
- (i) Degree of improvement in indicator of dyskinesia symptom (total AIMs score in 3 hours, solvent minus tandospirone group) (PD-LID rat model [1]; oral 6.7 mg/kg as free form (10 mg/kg as citrate)): significant change in the total AIMs score was not observed
- (i) Degree of improvement in indicator of dyskinesia symptom (total AIMs score in 3 hours, solvent minus tandospirone group) (PD-LID rat model [1]; oral 20 mg/kg as free form (30 mg/kg as citrate)): significant change in the total AIMs score was not observed
- (ii) Indicator of rebound symptom of dyskinesia (total dyskinesia-like symptom score in 100 to 180 minutes, solvent minus tandospirone group) (PD-LID rat model [1]; oral 20 mg/kg as free form (30 mg/kg as citrate), experiment printed as (FIG. 7)): significant increase in the total AIMs score
- (ii) Indicator of rebound symptom of dyskinesia (total dyskinesia-like symptom score in 100 to 180 minutes, solvent minus tandospirone group) (PD-LID rat model [1]; oral 20 mg/kg as free form (30 mg/kg as citrate), experiment printed as (FIGS. 8A-8B)): significant increase in the total AIMs score
- (i) Degree of improvement in indicator of dyskinesia symptom (total AIMs score in 3 hours, solvent minus tandospirone group) (PD-LID rat model [1]; [4]): significant change in the total AIMs score was not observed
- (ii) Indicator of rebound symptom of dyskinesia (total dyskinesia-like symptom score in 100 to 180 minutes, solvent minus tandospirone group) (PD-LID rat model [1]; [4]): significant increase in the total AIMs score
- (iii) Duration of action of levodopa without dyskinesia symptom (ON time without dyskinesia) (PD-LID rat model [2]; oral 20 mg/kg as free form (30 mg/kg as citrate), vs solvent group): increase in ON time without dyskinesia
- total ON score (Locomotive behavior) in 3 hours (PD-LID rat model [2]; oral 30 mg/kg as citrate, vs solvent group): increase in the total ON score
- (iii) Duration of action of levodopa without dyskinesia symptom (ON time without dyskinesia) (PD-LID rat model [2]; oral 67 mg/kg as free form (100 mg/kg as citrate), prolongation vs solvent group): significant prolongation in the ON-time without dyskinesia; also recorded: increase in ON time without dyskinesia
- total ON score (Locomotive behavior) in 3 hours (PD-LID rat model [2]; oral 100 mg/kg as citrate, vs solvent group): increase in the total ON score
- dyskinesia-like symptoms (total AIMs score in 3 hours) (PD-LID rat model [3]): Significant improvement in dyskinesia-like symptoms
- increase in total AIMs score associated with repeated administration of levodopa (6-OHDA-lesioned rats; continuous subcutaneous infusion 30 mg/mL (mean of 0.41 mg/kg/hour)): suppressed the increase in total AIMs score
- total AIMs score on the day after completion of administration (day 16) (6-OHDA-lesioned rats; continuous subcutaneous infusion 30 mg/mL or 60 mg/mL, pump retrieved day 15): significantly lower
- increase in total AIMs score associated with repeated administration of levodopa (6-OHDA-lesioned rats; continuous subcutaneous infusion 60 mg/mL (mean of 0.83 mg/kg/hour)): suppressed the increase in total AIMs score
